{"source": "paper PMC8877593", "about": "“Increased Activities against Biofilms of the Pathogenic Yeast Candida albicans of Optimized Pom-1 Derivatives” (Pharmaceutics, 2022)", "assay_type_in_all_cases": "cell-based, Candida albicans (ATCC 90028)", "key": {"[1]": {"test_system": "planktonic C. albicans cells", "assay": "Resazurin reduction / viability assay on planktonic C. albicans cells (broth microdilution, CLSI M27-A3)", "settings": "for inhibition of cell viability: planktonic C. albicans, 2.5 × 10^3 cells per well, 20 µg/mL, 24 h, 37 °C, RPMI-1640, resazurin fluorescence, vs untreated cells, triplicate; for Antimycrobial Activity against Planktonic C. albicans Cells [%] at 20 µg/mL: in comparison to Pom-1 (= 100%), 20 µg/mL peptide", "protocol": "The viability of treated C. albicans cells with Pom-1A to F was determined according to the Clinical and Laboratory Standards Institute guidelines (M27-A3) for the broth microdilution assay. For this, 2.5 × 10^3 yeast cells were incubated in 200 µL of RPMI-1640 medium (supplemented with L-glutamine) in the presence of various concentrations of Pom-1A to F (2.5–20 µg/mL) in flat-bottomed polystyrene microtiter plates with 96 wells (Sarstedt AG and Co. KG, Nümbrecht, Germany) at 37 °C with shaking at 900 rpm on an Eppendorf shaker. Quantitation of viable yeast cells was performed using a Resazurin-reduction-Assay. For this, yeast cells were incubated with 20 µL of 0.15 mg/mL resazurin solution for 2 h. During this time, the viable cells were able to reduce the resazurin to resorufin. […] For this purpose, a dilution series was prepared for each sample in RPMI 1640 medium and 1 µL was added to Sabouraud agar plates, which were then incubated for 24 h at 37 °C, respectively. To determine the antifungal effect of the peptide derivatives on planktonic C. albicans cells, different concentrations (2.5–20 µg/mL) of the peptides were applied to fixed cell numbers (2.5 × 10^3 cells per well) and were incubated for 24 h in a suspension microtiter plate."}, "C. albicans biofilm [2]": {"test_system": "C. albicans biofilm", "parameters": "semi inhibitory concentration (IC50) of biofilm formation / IC50 Values against Biofilm Formation: unit not given here", "settings": "for semi inhibitory concentration (IC50) of biofilm formation / IC50 Values against Biofilm Formation: C. albicans, crystal violet, 24 h, 37 °C, 2.5–20 µg/mL, Hill fit, triplicate; for semi inhibitory concentration (IC50) of biofilm formation: Figure 4A; for IC50 Values against Biofilm Formation: without agitation, Table 1 (rounded); for Antimicrobial Activity against C. albicans Biofilm [%] Based on IC50 Values: in comparison to Pom-1 (= 100%), from IC50 values", "protocol": "The analysis of the antifungal effect of the peptides on biofilm followed the same conditions as described previously. In brief, 2.5 × 10^3 yeast cells were incubated in 200 µL RPMI-1640 medium with L-glutamine in flat-bottomed polystyrene microtiter plates with 96 wells (Sarstedt AG and Co. KG, Nümbrecht, Germany) with the respective peptides at different concentrations (2.5–20 µg/mL) for 24 h at 37 °C, but without agitation. The quantification of the biofilm took place due to a crystal violet assay, which was originally developed by George O’ Toole for bacteria and was adapted for Candida biofilms. For this, the planktonic phase in the wells was removed and the biofilms were washed twice with 200 µL of demineralized water. Subsequently, the cells in the biofilm were stained for 15 min with 200 µL of a 0.1% (w/v) crystal violet solution. The solution was then removed again and the stained cells were washed twice with 200 µL of demineralized water. Then, the biofilms in the microtiter plate were dried for 24 h at 25 °C. These were then mixed with 200 µL of 30% acetic acid. After 15 min, the stained solution was transferred to a new microtiter plate and the absorbance at 560 nm was measured using a Tecan infinite F200 microplate reader. The data obtained were then graphically identified using a Hill non-linear dose-response equation and the semi-inhibitory concentration (IC50) was determined, at which 50% of the biofilm was not formed compared to the untreated control.\nIn order to evaluate the potential of the novel Pom-1A-F peptides, the well established crystal violet assay for microbial cultures in microtiter plates was performed to quantify the biomass formed."}, "C. albicans biofilm [3]": {"test_system": "C. albicans biofilm", "assay": "Microscopic analysis of treated C. albicans biofilms", "settings": "20 µg/mL, 24 h at 37 °C, transmitted light, compared with untreated and Pom-1 control biofilms", "protocol": "C. albicans biofilms were treated with Pom-1, and its derivatives in comparison to an untreated bifilm control (Figure 4B).\nFigure 4 Antifungal activity of Pom-1A to F towards C. albicans biofilms. (A) Determined dose-dependent effect of Pom-1 derivatives on biofilm mass by crystal violet assay with fluconazole and Pom-1 as the control agent. All experiments were performed in triplicate and error bars indicate standard deviations. (B) Microscopic analysis using a Leica DMi8 coded (Leica Microsystems CMS GmbH, Wetzlar, Germany) microscope) of untreated C. albicans biofilm and biofilm treated with Pom-1 and its derivatives (20 µg/mL) after 24 h of incubation at 37 °C under transmitted light. TEXT PRINTED IN THE PICTURE: (A) Pom-1A: IC50: 0.9555 | (A) Pom-1B: IC50: 0.008353 | (A) Pom-1C: IC50: 0.08687 | (A) Pom-1D: IC50: 4.930e-032 | (A) Pom-1E: IC50: 2.893 | (A) Pom-1F: IC50: 0.1570 DOUBTS OF THE COPYIST ABOUT THIS PICTURE: Pom-1A, IC50: small print, 0.9555 could be 0.9535 or 0.9556 / Pom-1B, IC50: small print, 0.008353 digits 8/3/5 not certain / Pom-1C, IC50: small print, 0.08687 digits 8/6 not certain / Pom-1D, IC50: small print, 4.930e-032 digits 9/3 not certain / Pom-1E, IC50: small print, 2.893 digits 8/9/3 not certain / Pom-1F, IC50: small print, 0.1570 digit 5 not certain"}, "[4]": {"test_system": "C. albicans planktonic cells", "assay": "Plate spot assay (colony formation after treatment of planktonic cells)", "settings": "after 24 h incubation with peptide (2.5–20 µg/mL), dilutions spotted on Sabouraud agar, further 24 h at 37 °C", "protocol": "The viability of treated C. albicans cells with Pom-1A to F was determined according to the Clinical and Laboratory Standards Institute guidelines (M27-A3) for the broth microdilution assay. For this, 2.5 × 10^3 yeast cells were incubated in 200 µL of RPMI-1640 medium (supplemented with L-glutamine) in the presence of various concentrations of Pom-1A to F (2.5–20 µg/mL) in flat-bottomed polystyrene microtiter plates with 96 wells (Sarstedt AG and Co. KG, Nümbrecht, Germany) at 37 °C with shaking at 900 rpm on an Eppendorf shaker. Quantitation of viable yeast cells was performed using a Resazurin-reduction-Assay. For this, yeast cells were incubated with 20 µL of 0.15 mg/mL resazurin solution for 2 h. During this time, the viable cells were able to reduce the resazurin to resorufin. […] The data obtained were subsequently identified in a Hill nonlinear dose-response equation and the semi-inhibitory concentration (IC50) could be determined, at which the cell viability was reduced by 50% compared to the untreated control. In addition, after incubation, 1 µL cell suspension was taken from each well of the microtiter plate to visually confirm the graphical results in a plate spot assay. For this purpose, a dilution series was prepared for each sample in RPMI 1640 medium and 1 µL was added to Sabouraud agar plates, which were then incubated for 24 h at 37 °C, respectively.\nFor this purpose, 1 µL cell suspension was taken from each well before adding the resazurin solution from the suspension microtiter plate. This sample was then diluted and was added to a Sabourand agar plate, which was then incubated for an additional 24 h for colony formation."}}, "note": "Ends that are not written are not given here."}
{"compound": "OC(Cn1cncn1)(Cn1cncn1)c1ccc(F)cc1F", "note": "[fluconazole, reference compound]", "values": [{"measurement": "inhibition of cell viability", "setting": "[1]", "value": "up to 70%"}]}
{"compound": "AGSIAWAIGSGLFGGAKLIKIKKY [Pom-1C]", "values": [{"measurement": "Antimycrobial Activity against Planktonic C. albicans Cells [%] at 20 µg/mL", "setting": "[1]", "value": 100, "unit": "%"}, {"measurement": "semi inhibitory concentration (IC50) of biofilm formation", "setting": "C. albicans biofilm [2]", "value": 0.08687}, {"measurement": "IC50 Values against Biofilm Formation", "setting": "C. albicans biofilm [2]", "value": 0.08}, {"measurement": "Antimicrobial Activity against C. albicans Biofilm [%] Based on IC50 Values", "setting": "C. albicans biofilm [2]", "value": 4750, "unit": "%"}]}
{"compound": "AIGSGLFGGAKLIKIKKYI [Pom-1F]", "values": [{"measurement": "Antimycrobial Activity against Planktonic C. albicans Cells [%] at 20 µg/mL", "setting": "[1]", "value": 82, "unit": "%"}, {"measurement": "semi inhibitory concentration (IC50) of biofilm formation", "setting": "C. albicans biofilm [2]", "value": 0.1570}, {"measurement": "IC50 Values against Biofilm Formation", "setting": "C. albicans biofilm [2]", "value": 0.16}, {"measurement": "Antimicrobial Activity against C. albicans Biofilm [%] Based on IC50 Values", "setting": "C. albicans biofilm [2]", "value": 2375, "unit": "%"}, {"measurement": "biofilm cell density / surface coverage by microscopy", "setting": "C. albicans biofilm [3]", "value": "slightly higher surface coverage"}]}
{"compound": "H-KCAGSIAWAIGSGLFGGAKLIKIKKYIAELGGLQ-OH [Pom-1]", "values": [{"measurement": "Antimycrobial Activity against Planktonic C. albicans Cells [%] at 20 µg/mL", "setting": "[1]", "value": 100, "unit": "%"}, {"measurement": "IC50 Values against Biofilm Formation", "setting": "C. albicans biofilm [2]", "value": 3.8}, {"measurement": "Antimicrobial Activity against C. albicans Biofilm [%] Based on IC50 Values", "setting": "C. albicans biofilm [2]", "value": 100, "unit": "%"}, {"measurement": "biofilm cell density / surface coverage by microscopy", "setting": "C. albicans biofilm [3]", "value": "significant reduction"}]}
{"compound": "IGSGLFGGAKLIKIKKYI [Pom-1A]", "values": [{"measurement": "Antimycrobial Activity against Planktonic C. albicans Cells [%] at 20 µg/mL", "setting": "[1]", "value": 133, "unit": "%"}, {"measurement": "colony formation in plate spot assay", "setting": "[4]", "value": "colony formation decreased with the increase of peptide concentrations"}, {"measurement": "semi inhibitory concentration (IC50) of biofilm formation", "setting": "C. albicans biofilm [2]", "value": 0.9555}, {"measurement": "IC50 Values against Biofilm Formation", "setting": "C. albicans biofilm [2]", "value": 0.95}, {"measurement": "Antimicrobial Activity against C. albicans Biofilm [%] Based on IC50 Values", "setting": "C. albicans biofilm [2]", "value": 400, "unit": "%"}]}
{"compound": "IGSGLFGGAKLIKIKKYIA [Pom-1D]", "values": [{"measurement": "Antimycrobial Activity against Planktonic C. albicans Cells [%] at 20 µg/mL", "setting": "[1]", "value": 97, "unit": "%"}, {"measurement": "colony formation in plate spot assay", "setting": "[4]", "value": "colony formation decreased with the increase of peptide concentrations"}]}
{"compound": "KCAGSIAWAIGSGLFGGAKLIKIKK [Pom-1E]", "values": [{"measurement": "Antimycrobial Activity against Planktonic C. albicans Cells [%] at 20 µg/mL", "setting": "[1]", "value": 153, "unit": "%"}, {"measurement": "semi inhibitory concentration (IC50) of biofilm formation", "setting": "C. albicans biofilm [2]", "value": 2.893}, {"measurement": "IC50 Values against Biofilm Formation", "setting": "C. albicans biofilm [2]", "value": 2.89}, {"measurement": "Antimicrobial Activity against C. albicans Biofilm [%] Based on IC50 Values", "setting": "C. albicans biofilm [2]", "value": 131, "unit": "%"}, {"measurement": "biofilm cell density / surface coverage by microscopy", "setting": "C. albicans biofilm [3]", "value": "slightly higher surface coverage"}]}
{"compound": "KCAGSIAWAIGSGLFGGAKLIKIKKY [Pom-1B]", "values": [{"measurement": "Antimycrobial Activity against Planktonic C. albicans Cells [%] at 20 µg/mL", "setting": "[1]", "value": 160, "unit": "%"}, {"measurement": "inhibition of cell viability", "setting": "[1]", "value": "up to 70%"}, {"measurement": "colony formation in plate spot assay", "setting": "[4]", "value": "colony formation decreased with the increase of peptide concentrations"}, {"measurement": "semi inhibitory concentration (IC50) of biofilm formation", "setting": "C. albicans biofilm [2]", "value": 0.008353}, {"measurement": "IC50 Values against Biofilm Formation", "setting": "C. albicans biofilm [2]", "value": 0.008}, {"measurement": "Antimicrobial Activity against C. albicans Biofilm [%] Based on IC50 Values", "setting": "C. albicans biofilm [2]", "value": 47500, "unit": "%"}]}
